{"source": "patent US5294617A", "about": "“Angiotensin II receptor blocking 2,3,6 substituted quinazolinones” (American Cyanamid Company, priority 1993, dated 1994)", "tested_on": "ANGIOTENSIN II (AII) VASOPRESSOR RESPONSE", "test": "AII Challenge: angiotensin II vasopressor response in conscious spontaneously hypertensive rats", "assay_type": "in vivo, Conscious Male Okamoto-Aoki SHR (rat)", "details": "individual rat, SHR", "text": "By administering a compound of this invention to a rat, and then challenging with angiotensin II, a blockage of the vasopressor response is realized.\nConscious Male Okamoto-Aoki SHR, 16-20 weeks old, weighing approximately 330 g are purchased from Charles River Labs (Wilmington, Mass.). Conscious rats are restrained in a supine position with elastic tape. The area at the base of the tail is locally anesthetized by subcutaneous infiltration with 2% procaine. The ventral caudal artery and vein are isolated, and a cannula made of polyethylene (PE) 10-20 tubing (fused together by heat) is passed into the lower abdominal aorta and vena cava, respectively. The cannula is secured, heparinized (1,000 I.U./ml), sealed and the wound is closed. The animals are placed in plastic restraining cages in an upright position. The cannula is attached to a Statham P23Db pressure transducer, and pulsatile blood pressure is recorded to 10-15 minutes with a Gould Brush recorder. (Chan et al., (Drug Development Res., 18:75-94, 1989).\nAngiotensin II (human sequence, Sigma Chem. Co., St. Louis, Mo.) of 0.05 and 0.1 ug/kg i.v. is injected into all rats (predosing response). Then a test compound, vehicle or a known angiotensin II antagonist is administered i.v., i.p. or orally to each set of rats. The two doses of angiotensin II are given to each rat again at 30, 60, 90, 120, 180, 240 and 300 minutes post dosing the compound or vehicle. The vasopressor response of angiotensin II is measured for the increase in systolic blood pressure in mmHg. The percentage of antagonism or blockade of the vasopressor response of angiotensin II by a compound is calculated using the vasopressor response (increase in systolic blood pressure) of angiotensin II of each rat predosing the compound as 100%. A compound is considered active if at 30 mg/kg i.v. it antagonized at least 50% of the response.", "key": {"[1]": {"details": "2 mg/kg i.v., AII 0.1 mcg/kg IV, 90 min post dose, 2 mg/kg"}, "[2]": {"details": "2 mg/kg i.v., AII 0.1 mcg/kg IV, 120 min post dose, 2 mg/kg"}, "[3]": {"details": "2 mg/kg i.v., AII 0.1 mcg/kg IV, 180 min post dose, 2 mg/kg"}, "[4]": {"details": "10 mg/kg i.v., AII 0.05 mcg/kg IV, 30 min post dose, 10 mg/kg"}, "[5]": {"details": "10 mg/kg i.v., AII 0.05 mcg/kg IV, 60 min post dose, 10 mg/kg"}, "[6]": {"details": "10 mg/kg i.v., AII 0.05 mcg/kg IV, 120 min post dose, 10 mg/kg"}, "[7]": {"details": "10 mg/kg i.v., AII 0.05 mcg/kg IV, 180 min post dose, 10 mg/kg"}, "[8]": {"details": "10 mg/kg i.v., AII 0.05 mcg/kg IV, 240 min post dose, 10 mg/kg"}, "[9]": {"details": "10 mg/kg i.v., AII 0.05 mcg/kg IV, 300 min post dose, 10 mg/kg"}, "[10]": {"details": "10 mg/kg i.v., AII 0.1 mcg/kg IV, 30 min post dose"}, "[11]": {"details": "10 mg/kg i.v., AII 0.1 mcg/kg IV, 60 min post dose, 10 mg/kg"}, "[12]": {"details": "10 mg/kg i.v., AII 0.1 mcg/kg IV, 90 min post dose, 10 mg/kg"}, "[13]": {"details": "10 mg/kg i.v., AII 0.1 mcg/kg IV, 120 min post dose, 10 mg/kg"}, "[14]": {"details": "10 mg/kg i.v., AII 0.1 mcg/kg IV, 180 min post dose, 10 mg/kg"}, "[15]": {"details": "10 mg/kg i.v., AII 0.1 mcg/kg IV, 240 min post dose, 10 mg/kg"}, "[16]": {"details": "10 mg/kg i.v., AII 0.1 mcg/kg IV, 300 min post dose, 10 mg/kg"}}, "note": "Several values for one entry are separate records, joined by “and”; a condition that tells them apart may be missing. Equal values may be shown once.", "data": [{"smiles": "CCCCc1nc2ccc([C@@H]3C[C@H](CO)ON3C)cc2c(=O)n1Cc1ccc(-c2ccccc2-c2nn[nH]n2)cc1", "note": "(relative stereo) [Example 15, CIS-2-butyl-6-5-(hydroxymethyl)-2-methyl-3-isoxazolidinyl]-3-[[2'-(1H-tetrazol-5[1,1'-biphenyl]-4-yl]methyl]-4(3H)-quinazolinone]", "values": [{"measurement": "Response After AII", "setting": "[1]", "result": "245 mmHg and 240 mmHg"}, {"measurement": "Response Change", "setting": "[1]", "result": "30 mmHg and 20 mmHg"}, {"measurement": "Response After AII", "setting": "[2]", "result": "227 mmHg and 235 mmHg"}, {"measurement": "Response Change", "setting": "[2]", "result": "17 mmHg and 20 mmHg"}, {"measurement": "Response After AII", "setting": "[3]", "result": "220 mmHg and 255 mmHg"}, {"measurement": "Response Change", "setting": "[3]", "result": "10 mmHg and 35 mmHg"}, {"measurement": "Control Before AII", "setting": "2 mg/kg i.v., before AII 0.05 mcg/kg IV, 30 min post dose, 2 mg/kg", "result": "215 mmHg and 225 mmHg"}, {"measurement": "Control Before AII", "setting": "2 mg/kg i.v., before AII 0.05 mcg/kg IV, 60 min post dose", "result": 220, "unit": "mmHg"}, {"measurement": "Control Before AII", "setting": "2 mg/kg i.v., before AII 0.05 mcg/kg IV, 90 min post dose, 2 mg/kg", "result": "210 mmHg and 225 mmHg"}, {"measurement": "Control Before AII", "setting": "2 mg/kg i.v., before AII 0.05 mcg/kg IV, 120 min post dose, 2 mg/kg", "result": "205 mmHg and 215 mmHg"}, {"measurement": "Control Before AII", "setting": "2 mg/kg i.v., before AII 0.05 mcg/kg IV, 180 min post dose, 2 mg/kg", "result": "203 mmHg and 215 mmHg"}, {"measurement": "Control Before AII", "setting": "2 mg/kg i.v., before AII 0.1 mcg/kg IV, 30 min post dose, 2 mg/kg", "result": "220 mmHg and 215 mmHg"}, {"measurement": "Control Before AII", "setting": "2 mg/kg i.v., before AII 0.1 mcg/kg IV, 60 min post dose, 2 mg/kg", "result": "220 mmHg and 217 mmHg"}, {"measurement": "Control Before AII", "setting": "2 mg/kg i.v., before AII 0.1 mcg/kg IV, 90 min post dose, 2 mg/kg", "result": "215 mmHg and 220 mmHg"}, {"measurement": "Control Before AII", "setting": "2 mg/kg i.v., before AII 0.1 mcg/kg IV, 120 min post dose, 2 mg/kg", "result": "210 mmHg and 215 mmHg"}, {"measurement": "Control Before AII", "setting": "2 mg/kg i.v., before AII 0.1 mcg/kg IV, 180 min post dose, 2 mg/kg", "result": "210 mmHg and 220 mmHg"}, {"measurement": "Response After AII", "setting": "[4]", "result": "180 mmHg and 190 mmHg"}, {"measurement": "Response Change", "setting": "[4]", "result": "5 mmHg and 15 mmHg"}, {"measurement": "Response After AII", "setting": "10 mg/kg i.v., AII 0.05 mcg/kg IV, 60 min post dose", "result": 190, "unit": "mmHg"}, {"measurement": "Response After AII", "setting": "[5]", "result": 165, "unit": "mmHg"}, {"measurement": "Response Change", "setting": "[5]", "result": "0 mmHg and 1 mmHg"}, {"measurement": "Response Change", "setting": "10 mg/kg i.v., AII 0.05 mcg/kg IV, 90 min post dose", "result": 5, "unit": "mmHg"}, {"measurement": "Response After AII", "setting": "10 mg/kg i.v., AII 0.05 mcg/kg IV, 90 min post dose, 10 mg/kg", "result": "180 mmHg and 170 mmHg"}, {"measurement": "Response After AII", "setting": "[6]", "result": "195 mmHg and 175 mmHg"}, {"measurement": "Response Change", "setting": "[6]", "result": "15 mmHg and 10 mmHg"}, {"measurement": "Response After AII", "setting": "[7]", "result": "195 mmHg and 165 mmHg"}, {"measurement": "Response Change", "setting": "[7]", "result": "30 mmHg and 10 mmHg"}, {"measurement": "Response After AII", "setting": "10 mg/kg i.v., AII 0.05 mcg/kg IV, 240 min post dose", "result": 160, "unit": "mmHg"}, {"measurement": "Response After AII", "setting": "[8]", "result": 195, "unit": "mmHg"}, {"measurement": "Response Change", "setting": "[8]", "result": "25 mmHg and 5 mmHg"}, {"measurement": "Response After AII", "setting": "10 mg/kg i.v., AII 0.05 mcg/kg IV, 300 min post dose", "result": 170, "unit": "mmHg"}, {"measurement": "Response After AII", "setting": "[9]", "result": 185, "unit": "mmHg"}, {"measurement": "Response Change", "setting": "[9]", "result": "17 mmHg and 10 mmHg"}, {"measurement": "Response After AII", "setting": "[10]", "result": 170, "unit": "mmHg"}, {"measurement": "Response Change", "setting": "[10]", "result": 0, "unit": "mmHg"}, {"measurement": "Response After AII", "setting": "10 mg/kg i.v., AII 0.1 mcg/kg IV, 30 min post dose, 10 mg/kg", "result": 185, "unit": "mmHg"}, {"measurement": "Response After AII", "setting": "[11]", "result": "193 mmHg and 170 mmHg"}, {"measurement": "Response Change", "setting": "[11]", "result": "8 mmHg and 10 mmHg"}, {"measurement": "Response After AII", "setting": "[12]", "result": "195 mmHg and 175 mmHg"}, {"measurement": "Response Change", "setting": "[12]", "result": "10 mmHg and 15 mmHg"}, {"measurement": "Response After AII", "setting": "10 mg/kg i.v., AII 0.1 mcg/kg IV, 120 min post dose", "result": 190, "unit": "mmHg"}, {"measurement": "Response After AII", "setting": "[13]", "result": 175, "unit": "mmHg"}, {"measurement": "Response Change", "setting": "[13]", "result": "15 mmHg and 10 mmHg"}, {"measurement": "Response After AII", "setting": "[14]", "result": "205 mmHg and 165 mmHg"}, {"measurement": "Response Change", "setting": "[14]", "result": "35 mmHg and 8 mmHg"}, {"measurement": "Response After AII", "setting": "[15]", "result": "205 mmHg and 165 mmHg"}, {"measurement": "Response Change", "setting": "[15]", "result": "35 mmHg and 8 mmHg"}, {"measurement": "Response After AII", "setting": "[16]", "result": "190 mmHg and 200 mmHg"}, {"measurement": "Response Change", "setting": "[16]", "result": "25 mmHg and 40 mmHg"}, {"measurement": "Control Before AII", "setting": "10 mg/kg i.v., before AII 0.05 mcg/kg IV, 30 min post dose", "result": 175, "unit": "mmHg"}, {"measurement": "Control Before AII", "setting": "10 mg/kg i.v., before AII 0.05 mcg/kg IV, 60 min post dose, 10 mg/kg", "result": "190 mmHg and 164 mmHg"}, {"measurement": "Control Before AII", "setting": "10 mg/kg i.v., before AII 0.05 mcg/kg IV, 90 min post dose, 10 mg/kg", "result": "175 mmHg and 165 mmHg"}, {"measurement": "Control Before AII", "setting": "10 mg/kg i.v., before AII 0.05 mcg/kg IV, 120 min post dose, 10 mg/kg", "result": "180 mmHg and 165 mmHg"}, {"measurement": "Control Before AII", "setting": "10 mg/kg i.v., before AII 0.05 mcg/kg IV, 180 min post dose, 10 mg/kg", "result": "165 mmHg and 155 mmHg"}, {"measurement": "Control Before AII", "setting": "10 mg/kg i.v., before AII 0.05 mcg/kg IV, 240 min post dose, 10 mg/kg", "result": "170 mmHg and 155 mmHg"}, {"measurement": "Control Before AII", "setting": "10 mg/kg i.v., before AII 0.05 mcg/kg IV, 300 min post dose, 10 mg/kg", "result": "168 mmHg and 160 mmHg"}, {"measurement": "Control Before AII", "setting": "10 mg/kg i.v., before AII 0.1 mcg/kg IV, 30 min post dose, 10 mg/kg", "result": "185 mmHg and 170 mmHg"}, {"measurement": "Control Before AII", "setting": "10 mg/kg i.v., before AII 0.1 mcg/kg IV, 60 min post dose, 10 mg/kg", "result": "185 mmHg and 160 mmHg"}, {"measurement": "Control Before AII", "setting": "10 mg/kg i.v., before AII 0.1 mcg/kg IV, 90 min post dose, 10 mg/kg", "result": "185 mmHg and 160 mmHg"}, {"measurement": "Control Before AII", "setting": "10 mg/kg i.v., before AII 0.1 mcg/kg IV, 120 min post dose, 10 mg/kg", "result": "175 mmHg and 165 mmHg"}, {"measurement": "Control Before AII", "setting": "10 mg/kg i.v., before AII 0.1 mcg/kg IV, 180 min post dose, 10 mg/kg", "result": "170 mmHg and 157 mmHg"}, {"measurement": "Control Before AII", "setting": "10 mg/kg i.v., before AII 0.1 mcg/kg IV, 240 min post dose, 10 mg/kg", "result": "170 mmHg and 157 mmHg"}, {"measurement": "Control Before AII", "setting": "10 mg/kg i.v., before AII 0.1 mcg/kg IV, 300 min post dose, 10 mg/kg", "result": "165 mmHg and 160 mmHg"}]}]}
